Assay: Human HepG2 cell viability assay in 384 well format
Format: toxicity, cell-based
Design: dose 125 nL, time 70.5 hour; cytotoxicity at 70.5 h: concentration not given beside the values
Details: HepG2 cells, read-out: Inhibition

Work on `CC[C@H](N)C(=O)Nc1nn(CC(F)(F)F)c2cc(OC(C)C)ccc12` yielded a cytotoxicity at 70.5 h of -14.2%.

`O=C(c1c2c(NCC3CC3)ncnc2n2ccccc12)N1CCOCC1` gave a cytotoxicity at 70.5 h of -1.89%.

`Cc1nn(C)cc1-c1cc(-c2cn(C)nc2C)n(CC(=O)NC2CC2)n1` showed a cytotoxicity at 70.5 h of -7.88%.

Molecule `Cc1nnc(N2CC[C@H]3O[C@H](C(=O)NCc4ccccn4)CC[C@H]32)s1` has a cytotoxicity at 70.5 h of -6.62%.

Work on `Cc1nc(CN2CCC(N(C)Cc3nnc(C4CC4)n3C)C2)oc1C` (centres undefined) yielded a cytotoxicity at 70.5 h of 10.4%.

Work on `CC(C)(O)CN1CCN(C(=O)c2cccc3cccnc23)CC1` yielded a cytotoxicity at 70.5 h of -2.87%.

Work on `CN(C)C(=O)[C@H]1C[C@@H]2CCN(C3CCOCC3)C[C@@H]2O1` yielded a cytotoxicity at 70.5 h of -2.42%.

`COCC1CN(Cc2cccnc2OC)Cc2cnn(C)c21` (centres undefined) gave a cytotoxicity at 70.5 h of 6.07%.

Molecule `COCc1cccc(S(=O)(=O)Nc2ncc(C)s2)c1` has a cytotoxicity at 70.5 h of -12.2%.

`Cc1cc(NC(=O)c2ccc(CN3CC[C@H](O)C3)cc2)ccc1F` gave a cytotoxicity at 70.5 h of -13.5%.

Work on `O=C(NCC(=O)N1CCc2ccccc2C1)c1cnccn1` yielded a cytotoxicity at 70.5 h of -6.74%.

With `CCn1cc(-c2cc(C(F)F)n3nc(CCC(=O)O)nc3n2)cn1` the cytotoxicity at 70.5 h was -2.48%.

Work on `CC(C)(C)S(=O)(=O)c1ccc(N2CCC(n3ccnc3)CC2)cn1` yielded a cytotoxicity at 70.5 h of -12.2%.

For `Cc1nc2sccn2c1C(=O)N1CCc2[nH]cnc2C1`, the cytotoxicity at 70.5 h was 10.2%.

`Cc1cnc(C(=O)N2C[C@H]3CCCC(OCc4cccnc4)[C@H]3C2)cn1` (some centres undefined) showed a cytotoxicity at 70.5 h of -3.45%.

For `CN(C)CCN1CCC2(CCCN(C(=O)C3CCC3)C2)CC1`, the cytotoxicity at 70.5 h was -1.03%.

Work on `COc1ncc(-c2ccc(C(N)=O)cc2)c(OC)n1` yielded a cytotoxicity at 70.5 h of -8.59%.

With `COC[C@]1(O)CCN(C2CCN(c3ccc(OC)cc3)CC2)CC1(C)C` the cytotoxicity at 70.5 h was 23.9%.

With `CNC(=O)N1CCc2nc(C(=O)Nc3cccnc3)sc2CC1` the cytotoxicity at 70.5 h was -3.13%.

In the case of `O=C(O)C1(n2ccc(-c3ccco3)n2)CCN(Cc2ccccn2)CC1`, the cytotoxicity at 70.5 h is reported as -4.75%.

`CCOC(=O)NC(CNC(=O)c1cc(Cl)ccn1)CC(C)C` (centres undefined) gave a cytotoxicity at 70.5 h of 5.7%.

`CCc1nnc2n1CCN(C(=O)c1cnc(-c3cccs3)s1)C2` gave a cytotoxicity at 70.5 h of -7.22%.

With `Cn1nccc1C(=O)NC(C)(C)c1noc(C(C)(C)C)n1` the cytotoxicity at 70.5 h was -16.4%.

For `c1snnc1CN1C[C@H]2CCC[C@@H](CN3CCOCC3)[C@H]2C1`, the cytotoxicity at 70.5 h was -7.77%.

Work on `COCCCNC(=O)CN1CCC(c2ccccc2)C1` (centres undefined) yielded a cytotoxicity at 70.5 h of -7.32%.

Molecule `CCOCC1CCN(C(=O)Nc2ccc(-c3csnn3)cc2)C1` (centres undefined) has a cytotoxicity at 70.5 h of -11.9%.

Work on `Cc1ccc(CN2Cc3ccccc3O[C@]3(CC[C@H](CO)CC3)C2)s1` yielded a cytotoxicity at 70.5 h of 5.08%.

Molecule `COc1cc(CCC(=O)NC2CCCN(C)C2)ccc1OCC(F)(F)F` (centres undefined) has a cytotoxicity at 70.5 h of -7.07%.

With `CCc1nc(CN(C)C2CCN(CCc3ccncc3)C2)no1` (centres undefined) the cytotoxicity at 70.5 h was -1.6%.

With `COc1ccc(CCC(=O)N2CCNCC2C(=O)N2CCOCC2)cc1` (centres undefined) the cytotoxicity at 70.5 h was -7.95%.

In the case of `CCc1nc(C2CCCN2Cc2nnc(Cc3ccccc3)o2)no1` (centres undefined), the cytotoxicity at 70.5 h is reported as -10.8%.

Work on `Cc1cc(C)n(CC2CN(Cc3ccc4c(c3)OCCO4)CCO2)n1` (centres undefined) yielded a cytotoxicity at 70.5 h of -3.91%.

In the case of `COc1ccc(-c2nnc(SC(C)C(N)=O)[nH]2)c(OC)c1` (centres undefined), the cytotoxicity at 70.5 h is reported as -8.05%.

In the case of `Cc1cc(NC(=O)CN2CCn3c(nnc3C(C)C)C2)on1`, the cytotoxicity at 70.5 h is reported as -0.984%.

For `CCOCC1CN(C(=O)c2ccnnc2)Cc2cnn(C)c21` (centres undefined), the cytotoxicity at 70.5 h was -4.89%.

`Cc1nc(C2CCCNC2)cc(N(C)CCc2cn[nH]c2)n1` (centres undefined) gave a cytotoxicity at 70.5 h of 20.1%.

Work on `CCS(=O)(=O)NCCNc1c(C#N)cnc2c(C)cc(F)cc12` yielded a cytotoxicity at 70.5 h of 2.54%.

`Cn1nc2c(cc1=O)CN(Cc1nc(C(C)(C)C)no1)CC2` gave a cytotoxicity at 70.5 h of -5.46%.

`Cc1nn(C)c2nc(N(CCN(C)C)CC3CCCO3)sc12` (centres undefined) gave a cytotoxicity at 70.5 h of -7.79%.

In the case of `O=C1COC2(CCN(Cc3ccoc3)CC2)CN1c1ccccc1`, the cytotoxicity at 70.5 h is reported as 5.1%.

Molecule `CCc1nc(CCNC(=O)C2CC2)sc1C` has a cytotoxicity at 70.5 h of -1.22%.

In the case of `CN1CC[C@H](N(Cc2ccccc2)Cc2ccccc2)C[C@H](O)C1`, the cytotoxicity at 70.5 h is reported as 11.2%.

Work on `O=C(Cn1cnc2sccc2c1=O)NCCc1nnc2ccccn12` yielded a cytotoxicity at 70.5 h of -11.3%.

`COCC(C)N(C)C(=O)c1ccc2nncn2c1` (centres undefined) gave a cytotoxicity at 70.5 h of -2.4%.

From ChEMBL document CHEMBL3507680, “University of Dundee, Gates Library screen for HepG2 cell viability”
